# From EP4043466B1, “PRC2 INHIBITORS” (Mirati Therapeutics, Inc., priority 2018, dated 2019)
# Key:
# [1] = molecular target: purified human, His-tagged PRC2 complex (Homo sapiens, UniProt O75530+Q15910); test: Hot Spot HMT assay: inhibition of PRC2 enzymatic activity (transfer of tritiated methyl from SAM to core histone, filter binding); format: biochemical; details: Inhibition of PRC2-mediated enzymatic activity; 10 nM PRC2 complex, 0.05 mg/ml core histone H3, 1 uM 3H-SAM, 1 hr at 30°C
# Summary of the method: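 Five-subunit complex (His-EZH2, Flag-EED, His-SUZ12, His-AEBP2, His-RbAp48) at 10 nM with 0.05 mg/ml core histone H3, pH 8 Tris buffer, 1% DMSO; 20 min compound pre-incubation at 30°C. Started with 1 uM [3H]-SAM, 1 hr at 30°C; tritiated H3 counted by scintillation. Compounds diluted from 1.0 µM top concentration.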
# [2] = tested on: PRC2-mediated histone H3 methylation; test: Tri-Methyl Histone H3 (Lys 27) Sandwich ELISA in Pfeiffer cells: inhibition of PRC2-mediated histone H3 methylation; format: cell-based, human; details: Homo sapiens; Inhibition of EZH2-mediated histone H3 trimethylation; Pfeiffer cells (EZH2 A677G), 96 hours incubation
# Text: The Pfeiffer cell line was established from a […] from a patient having metastatic diffuse large B-cell lymphoma (DLBCL). This cell line expresses a mutant form of the EZH2 enzyme (A677G) that results in enhanced EZH2 activity leading to increased methylation of histone H3 Lys27. Increased trimethylation of histone H3 Lys27 is believed to be implicated in tumorgenesis and poor clinical prognosis in lymphomas (McCabe et al., (2012) Nature 492:108-112).
# Inhibition of PRC2-mediated histone H3 methylation by compounds of Formula (I) was measured by ELISA using a Tri-Methyl Histone H3 (Lys 27) Sandwich ELISA Kit (Cell Signaling Tech #7866C) in accordance with the manufacturer's instructions. Briefly, Pfeiffer cells were cultured in RPMI medium supplemented with 10% fetal bovine serum and 1% penicillin and 1% streptomycin in 96 well culture plates at 37°C to a density of 8000 cells/90µl/well and the cells were harvested. A series of 3-fold serial dilutions of each test compound of Formula (I) were prepared in RPMI medium and added to the cells at final concentrations ranging from 1µM to 0.15 nM. The plates were incubated at 37°C for 96 hours.
# After incubation, the cells were pelleted by centrifugation in a pre-cooled 4°C rotor at 1, 100 rpm for 10 min and the supernatant was removed by aspiration. The cell pellet was resuspended in 55µl of Lysis Buffer (0.4M HCl) and incubated on ice with periodic shaking for 30 minutes. The lysed cells were subjected to centrifugation at 4, 200 rpm for 10 min at 4°C and the supernatant containing acid-soluble proteins was collected and the remainder discarded. The acid-soluble proteins were brought to a neutral pH by the addition of 20 µl of Neutralization Buffer (1 M Sodium phosphate, dibasic (pH 12.5), 2.5 mM DTT and 1 mM PMSF) and the neutralized lysates were analyzed by ELISA.
# A 65 µl aliquot of each cell lysate was added to a well of a microwell strip, the microwells were sealed using tape and incubated either at 37°C for two hours or at 4°C overnight. After incubation, the tape was removed at the microwells were washed four times using 200 µl of 1X Wash Buffer. To each washed microwell, a 100 µl aliquot of an antitrimethyl histone H3 Lys27 Detection Antibody solution was added and the microwells were incubated at 37°C for one hour. The Detection Antibody solution was removed by aspiration and the wells were washed four times each using 200 µl of 1X Wash Buffer.
# A 100 µl aliquot of an HRP-linked secondary antibody was added to each well, the wells were sealed with tape and incubated at 37°C for 30 min. The HRP-linked secondary antibody solution was removed by aspiration and the wells were washed four times using 200 µl of 1X Wash Buffer. A 100 µl aliquot of a TMB substrate was added to each well, the wells were sealed with tape and incubated at 37°C for 10 min or 25°C for 30 min. The reaction was stopped by the addition of 100 µl aliquot of a STOP solution and the plate was shaken briefly. The degree of histone H3 trimethylation was determined using a spectrophotometric readout by measuring the absorbance at 450 nm and then calculating the amount of trimethylated histone H3. A = ≤100 nM; B = >100 nM - ≤500 nM; C = >500 nM and N.D. = not determined.
# [3] = tested on: Karpas 422 cells; test: Karpas 422 cell viability, CTG (Cell Titre Glo) assay; format: cell-based, human; details: Homo sapiens; Inhibition of proliferation of Karpas 422 cells (EZH2 Y641N); viability measured Day 4, Day 7 or Day 11, time point of the tabulated values not stated
# Summary of the method: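 Karpas 422 cells (EZH2 Y641N, DLBCL) plated at 1000 cells/well in RPMI with 20% FBS, exposed to compound 10µM down to 1.5nM in 3-fold steps at 37 °C. Viability by CellTiter-Glo on Days 4, 7 and 11; Day 11 plates re-fed with fresh medium and compound on Day 7. IC50 per time point.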
# purified human, His-tagged PRC2 complex, sequence (Q15910 whole entry): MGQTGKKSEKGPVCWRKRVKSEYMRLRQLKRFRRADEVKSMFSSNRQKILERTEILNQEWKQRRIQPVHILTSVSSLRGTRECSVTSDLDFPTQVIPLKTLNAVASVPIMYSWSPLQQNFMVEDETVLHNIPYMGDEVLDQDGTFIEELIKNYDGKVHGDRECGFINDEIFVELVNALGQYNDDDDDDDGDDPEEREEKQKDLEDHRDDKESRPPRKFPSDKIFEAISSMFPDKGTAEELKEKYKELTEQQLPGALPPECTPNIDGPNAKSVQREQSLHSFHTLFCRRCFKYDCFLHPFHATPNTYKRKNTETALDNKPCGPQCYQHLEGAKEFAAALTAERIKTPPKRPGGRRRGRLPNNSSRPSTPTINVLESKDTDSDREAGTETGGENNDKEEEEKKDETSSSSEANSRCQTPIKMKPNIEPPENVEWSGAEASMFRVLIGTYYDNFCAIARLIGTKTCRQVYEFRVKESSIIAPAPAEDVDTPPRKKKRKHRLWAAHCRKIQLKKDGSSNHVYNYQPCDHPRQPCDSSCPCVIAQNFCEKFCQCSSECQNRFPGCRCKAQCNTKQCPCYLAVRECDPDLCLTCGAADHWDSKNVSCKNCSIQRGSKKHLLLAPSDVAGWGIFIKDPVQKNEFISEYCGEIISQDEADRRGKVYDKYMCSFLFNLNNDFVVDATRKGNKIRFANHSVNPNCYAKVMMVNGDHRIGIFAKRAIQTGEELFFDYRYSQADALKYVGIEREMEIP
# purified human, His-tagged PRC2 complex, sequence (O75530 whole entry): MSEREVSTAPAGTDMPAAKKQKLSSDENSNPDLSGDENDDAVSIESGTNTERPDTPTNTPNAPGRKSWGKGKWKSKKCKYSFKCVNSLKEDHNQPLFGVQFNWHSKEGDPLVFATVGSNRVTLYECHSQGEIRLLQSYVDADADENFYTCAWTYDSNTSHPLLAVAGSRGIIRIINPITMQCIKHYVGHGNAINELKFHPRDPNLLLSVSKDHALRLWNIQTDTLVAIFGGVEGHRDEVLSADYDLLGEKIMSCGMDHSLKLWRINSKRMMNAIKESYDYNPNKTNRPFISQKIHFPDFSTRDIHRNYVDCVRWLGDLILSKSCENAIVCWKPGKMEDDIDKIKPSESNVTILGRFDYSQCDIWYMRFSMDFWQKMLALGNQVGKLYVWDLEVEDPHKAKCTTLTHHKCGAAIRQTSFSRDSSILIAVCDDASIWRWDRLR
# purified human, His-tagged PRC2 complex, sequence (Q15022 whole entry partner): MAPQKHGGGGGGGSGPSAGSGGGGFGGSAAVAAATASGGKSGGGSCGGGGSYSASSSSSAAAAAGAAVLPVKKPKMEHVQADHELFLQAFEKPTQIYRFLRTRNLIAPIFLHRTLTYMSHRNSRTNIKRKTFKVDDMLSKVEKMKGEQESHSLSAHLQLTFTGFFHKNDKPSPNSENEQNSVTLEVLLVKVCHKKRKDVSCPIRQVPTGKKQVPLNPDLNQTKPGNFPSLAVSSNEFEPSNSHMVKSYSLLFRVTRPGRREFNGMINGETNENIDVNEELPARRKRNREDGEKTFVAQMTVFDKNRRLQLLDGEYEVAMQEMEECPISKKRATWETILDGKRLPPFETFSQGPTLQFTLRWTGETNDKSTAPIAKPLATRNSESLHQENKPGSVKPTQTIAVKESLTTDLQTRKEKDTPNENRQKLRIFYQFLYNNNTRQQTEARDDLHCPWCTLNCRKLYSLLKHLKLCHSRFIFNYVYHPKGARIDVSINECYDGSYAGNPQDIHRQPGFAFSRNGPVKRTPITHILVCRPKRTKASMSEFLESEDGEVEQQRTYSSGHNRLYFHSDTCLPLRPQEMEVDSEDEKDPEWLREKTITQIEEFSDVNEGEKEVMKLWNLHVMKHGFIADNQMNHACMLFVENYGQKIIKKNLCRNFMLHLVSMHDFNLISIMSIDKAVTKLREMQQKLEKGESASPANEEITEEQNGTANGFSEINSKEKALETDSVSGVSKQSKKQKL
# purified human, His-tagged PRC2 complex, sequence (Q6ZN18 whole entry partner): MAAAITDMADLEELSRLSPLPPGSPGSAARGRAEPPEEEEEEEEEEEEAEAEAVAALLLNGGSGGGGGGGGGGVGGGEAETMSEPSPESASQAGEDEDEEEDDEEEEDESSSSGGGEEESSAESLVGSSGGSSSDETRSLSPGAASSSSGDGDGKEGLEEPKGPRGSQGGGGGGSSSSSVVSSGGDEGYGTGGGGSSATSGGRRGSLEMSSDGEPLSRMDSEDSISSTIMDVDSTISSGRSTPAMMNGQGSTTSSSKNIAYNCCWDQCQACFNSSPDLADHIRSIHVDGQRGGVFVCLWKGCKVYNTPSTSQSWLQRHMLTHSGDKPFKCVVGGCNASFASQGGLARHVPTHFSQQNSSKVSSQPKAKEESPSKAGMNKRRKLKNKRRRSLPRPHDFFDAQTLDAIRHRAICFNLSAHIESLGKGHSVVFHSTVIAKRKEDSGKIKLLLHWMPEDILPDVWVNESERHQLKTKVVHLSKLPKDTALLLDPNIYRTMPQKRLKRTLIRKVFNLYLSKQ
# purified human, His-tagged PRC2 complex, sequence (Q09028 whole entry partner): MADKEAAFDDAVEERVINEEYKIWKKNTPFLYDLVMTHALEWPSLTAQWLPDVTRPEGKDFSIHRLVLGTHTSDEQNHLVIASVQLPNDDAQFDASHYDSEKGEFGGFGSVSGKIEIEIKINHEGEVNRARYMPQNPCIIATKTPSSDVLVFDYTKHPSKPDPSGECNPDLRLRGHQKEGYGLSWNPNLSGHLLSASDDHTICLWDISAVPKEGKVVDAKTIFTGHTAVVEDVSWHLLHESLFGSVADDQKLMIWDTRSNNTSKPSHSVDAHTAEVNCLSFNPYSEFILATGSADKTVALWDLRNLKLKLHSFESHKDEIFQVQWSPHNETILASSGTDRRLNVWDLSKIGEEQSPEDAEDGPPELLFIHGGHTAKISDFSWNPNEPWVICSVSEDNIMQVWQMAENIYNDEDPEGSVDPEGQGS
IC50 [1] [nM],IC50 [2] [nM],IC50 [3] [nM],SMILES
< 100,≤ 100,–,"N#Cc1cn2c(NCc3c(F)ccc4c3CCO4)ncc(-c3ccc(CN4CC(O)C4)cc3)c2n1 [Example 150, 5-(((5-fluoro-2,3-dihydrobenzofuran-4-yl)methyl)amino)-8-(4-((3-hydroxyazetidin-1-yl)methyl)phenyl)imidazo[1,2-c]pyrimidine-2-carbonitrile]"
< 100,≤ 100,–,"CC(c1ccc(-c2cnc(NCc3c(F)ccc4c3CCO4)n3cc(C#N)nc23)cc1)N1CCCC1 (stereo not shown) [Example 90, 5-(((5-fluoro-2,3-dihydrobenzofuran-4-yl)methyl)amino)-8-(4-(1-(pyrrolidin-1-yl)ethyl)phenyl)imidazo[1,2-c]pyrimidine-2-carbonitrile]"
< 100,100 to 500,–,"N#Cc1cn2c(NCc3c(F)ccc4c3CCO4)ncc(-c3cccnc3CO)c2n1 [Example 148, 5-(((5-fluoro-2,3-dihydrobenzofuran-4-yl)methyl)amino)-8-(2-(hydroxymethyl)pyridin-3-yl)imidazo[1,2-c]pyrimidine-2-carbonitrile]"
< 100,100 to 500,–,"N#Cc1cn2c(NCc3c(F)ccc4c3CCO4)ncc(-c3cnn4c3CCC4)c2n1 [Example 80, 8-(5,8-dihydro-4H-pyrrolo[1,2-b]pyrazol-3-yl)-5-(((5-fluoro-2,3-dihydrobenzofuran-4-yl)methyl)amino)imidazo[1,2-c]pyrimidine-2-carbonitrile]"
100 to 500,100 to 500,–,"Cn1cc(-c2cnc(NCc3c(F)ccc4c3CCO4)n3cc(C#N)nc23)c(C#N)n1 [Example 224, 8-(3-cyano-1-methyl-1H-pyrazol-4-yl)-5-(((5-fluoro-2,3-dihydrobenzofuran-4-yl)methyl)amino)imidazo[1,2-c]pyrimidine-2-carbonitrile]"
< 100,≤ 100,–,"CN(C)Cc1ccc(-c2cnc(NCc3c(F)ccc4c3CCO4)n3cc(C#N)nc23)cc1F [Example 63, 8-(4-((dimethylamino)methyl)-3-fluorophenyl)-5-(((5-fluoro-2,3-dihydrobenzofuran-4-yl)methyl)amino)imidazo[1,2-c]pyrimidine-2-carbonitrile]"
< 100,≤ 100,–,"N#Cc1cn2c(NCc3c(F)ccc4c3CCO4)ncc(-c3ccc(CN4CC5CC5C4)cc3)c2n1 (stereo not shown) [Example 52, 8-(4-((3-azabicyclo[3.1.0]hexan-3-yl)methyl)phenyl)-5-(((5-fluoro-2,3-dihydrobenzofuran-4-yl)methyl)amino)imidazo[1,2-c]pyrimidine-2-carbonitrile]"
< 100,≤ 100,–,"Cn1nncc1-c1cnc(NCc2c(F)ccc3c2CCO3)n2cc(C#N)nc12 [Example 143, 5-(((5-fluoro-2,3-dihydrobenzofuran-4-yl)methyl)amino)-8-(1-methyl-1H-1,2,3-triazol-5-yl)imidazo[1,2-c]pyrimidine-2-carbonitrile]"
< 100,–,≤ 250,"N#Cc1cn2c(NCc3c(F)ccc4c3CCO4)ncc(-c3ccc(CN4CCC(F)C4)cc3)c2n1 (stereo not shown) [Example 54, 5-(((5-fluoro-2,3-dihydrobenzofuran-4-yl)methyl)amino)-8-(4-((3-fluoropyrrolidin-1-yl)methyl)phenyl)imidazo[1,2-c]pyrimidine-2-carbonitrile]"
100 to 500,–,250 to 500,"Cc1nc(C2CC2)ncc1-c1cnc(NCc2c(F)ccc3c2CCO3)n2cc(C#N)nc12 [Example 25, 8-(2-cyclopropyl-4-methylpyrimidin-5-yl)-5-(((5-fluoro-2,3-dihydrobenzofuran-4-yl)methyl)amino)imidazo[1,2-c]pyrimidine-2-carbonitrile]"
< 100,–,> 500,"COc1cc(-c2cnc(NCc3c(F)ccc4c3CCO4)n3cc(C#N)nc23)ccn1 [Example 113, 5-(((5-fluoro-2,3-dihydrobenzofuran-4-yl)methyl)amino)-8-(2-methoxypyridin-4-yl)imidazo[1,2-c]pyrimidine-2-carbonitrile]"
< 100,≤ 100,–,"COc1cc(-c2cnc(NCc3c(F)ccc4c3CCO4)n3cc(C#N)nc23)c(F)cn1 [Example 123, 5-(((5-fluoro-2,3-dihydrobenzofuran-4-yl)methyl)amino)-8-(5-fluoro-2-methoxypyridin-4-yl)imidazo[1,2-c]pyrimidine-2-carbonitrile]"
< 100,–,> 500,"CCOc1ncccc1-c1cnc(NCc2c(F)ccc3c2CCO3)n2cc(C#N)nc12 [Example 124, 8-(2-ethoxypyridin-3-yl)-5-(((5-fluoro-2,3-dihydrobenzofuran-4-yl)methyl)amino)imidazo[1,2-c]pyrimidine-2-carbonitrile]"
< 100,–,≤ 250,"N#Cc1cn2c(NCc3c(F)ccc4c3CCO4)ncc(-c3cccnc3)c2n1 [Example 100, 5-(((5-fluoro-2,3-dihydrobenzofuran-4-yl)methyl)amino)-8-(pyridin-3-yl)imidazo[1,2-c]pyrimidine-2-carbonitrile]"
100 to 500,100 to 500,–,"Cc1ccc(C#N)cc1-c1cnc(NCc2c(F)ccc3c2CCO3)n2cc(C#N)nc12 [Example 177, 8-(5-cyano-2-methylphenyl)-5-(((5-fluoro-2,3-dihydrobenzofuran-4-yl)methyl)amino)imidazo[1,2-c]pyrimidine-2-carbonitrile]"
< 100,100 to 500,–,"N#Cc1cn2c(NCc3c(F)ccc4c3CCO4)ncc(-c3ccccc3)c2n1 [Example 46, 5-(((5-fluoro-2,3-dihydrobenzofuran-4-yl)methyl)amino)-8-phenylimidazo[1,2-c]pyrimidine-2-carbonitrile]"
> 500,–,> 500,"Cc1cc(-c2cnc(NCc3c(Cl)ccc4c3CCO4)n3cc(C#N)nc23)n(C)n1 [Example 29, 5-(((5-chloro-2,3-dihydrobenzofuran-4-yl)methyl)amino)-8-(1,3-dimethyl-1H-pyrazol-5-yl)imidazo[1,2-c]pyrimidine-2-carbonitrile]"
< 100,–,> 500,"Cc1nn(C(C)C)cc1-c1cnc(NCc2c(F)ccc3c2CCO3)n2cc(C(=O)O)nc12 [Example 5, 5-(((5-fluoro-2,3-dihydrobenzofuran-4-yl)methyl)amino)-8-(1-isopropyl-3-methyl-1H-pyrazol-4-yl)imidazo[1,2-c]pyrimidine-2-carboxylic acid]"
< 100,–,> 500,"Cc1nc(C2CC2)ncc1-c1cnc(NCc2c(F)ccc3c2CCO3)n2cc(C(=O)O)nc12 [Example 7, 8-(2-cyclopropyl-4-methylpyrimidin-5-yl)-5-(((5-fluoro-2,3-dihydrobenzofuran-4-yl)methyl)amino)imidazo[1,2-c]pyrimidine-2-carboxylic acid]"
< 100,–,≤ 250,"CN(C)C(=O)c1ccc(-c2cnc(NCc3c(F)ccc4c3CCO4)n3cc(C#N)nc23)c(F)c1F [Example 42, 4-(2-cyano-5-(((5-fluoro-2,3-dihydrobenzofuran-4-yl)methyl)amino)imidazo[1,2-c]pyrimidin-8-yl)-2,3-difluoro-N,N-dimethylbenzamide]"
